Experimental data reported in ChEMBL document CHEMBL1955743, “Potent inhibitors of LpxC for the treatment of Gram-negative infections” (J Med Chem, 2012).
In brackets after ≈: the same amount, converted by molar mass.

How the values were obtained:
Staphylococcus aureus = experiment: Antibacterial activity against Staphylococcus aureus ATCC 29213 after 16 to 20 hrs by broth microdilution method; type: functional
Pseudomonas aeruginosa = experiment: Antibacterial activity against Pseudomonas aeruginosa PAO1 after 16 to 20 hrs by broth microdilution method; type: functional
[1] = biological target: T1, UDP-3-O-acyl-N-acetylglucosamine deacetylase (Pseudomonas aeruginosa (strain ATCC 15692 / PAO1 / 1C / PRS 101 / LMG12228), UniProt P47205); experiment: Inhibition of Pseudomonas aeruginosa LpxC using UDP-3-O-(R-hydroxydecanoyl)-N-acetylglucosamine incubated for 30 mins prior to substrate addition measured after 60 mins by mass spectrophotometry
T1 sequence (P47205 whole entry): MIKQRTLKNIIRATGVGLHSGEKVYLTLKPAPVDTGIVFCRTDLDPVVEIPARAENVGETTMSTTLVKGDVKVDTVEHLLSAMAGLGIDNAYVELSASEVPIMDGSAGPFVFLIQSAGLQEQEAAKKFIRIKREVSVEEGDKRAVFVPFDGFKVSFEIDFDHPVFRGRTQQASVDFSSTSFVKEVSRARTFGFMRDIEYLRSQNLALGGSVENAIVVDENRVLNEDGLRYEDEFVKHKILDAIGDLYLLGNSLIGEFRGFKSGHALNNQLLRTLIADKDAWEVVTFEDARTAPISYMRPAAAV

An MIC (Staphylococcus aureus) of 32 µg/mL (≈ 85.2 µM), an MIC (Pseudomonas aeruginosa) of 8 µg/mL (≈ 21.3 µM) and an IC50 [1] of 26.1 nM were found for `CCc1ccccc1-c1ccc(CC[C@](C)(C(=O)NO)S(C)(=O)=O)cc1` in this work.
An MIC (Staphylococcus aureus) greater than 64 µg/mL, an MIC (Pseudomonas aeruginosa) greater than 64 µg/mL and an IC50 [1] of 92.7 nM were found for `CC(CCc1ccc(OCc2cc[n+]([O-])cc2)cc1)(C(=O)NO)S(C)(=O)=O` (racemic) in this work.
An MIC (Staphylococcus aureus) greater than 64 µg/mL, an MIC (Pseudomonas aeruginosa) of 4 µg/mL (≈ 11.5 µM) and an IC50 [1] of 29.7 nM were found for `C[C@@](CCc1ccc(-c2cccnc2)cc1)(C(=O)NO)S(C)(=O)=O` in this work.
An MIC (Staphylococcus aureus) of 32 µg/mL (≈ 69.2 µM), an MIC (Pseudomonas aeruginosa) of 32 µg/mL (≈ 69.2 µM) and an IC50 [1] of 9.49 nM were found for `CC(CCc1ccc(-c2ccc(OCCCNC(=N)N)cc2)cc1)(C(=O)NO)S(C)(=O)=O` (racemic) in this work.
An MIC (Staphylococcus aureus) greater than 64 µg/mL, an MIC (Pseudomonas aeruginosa) of 4 µg/mL (≈ 10.6 µM) and an IC50 [1] of 21.6 nM were found for `CC(CCc1ccc(OCc2ccncc2)cc1)(C(=O)NO)S(C)(=O)=O` (racemic) in this work.
An MIC (Staphylococcus aureus) of 16 µg/mL (≈ 41.9 µM), an MIC (Pseudomonas aeruginosa) of 0.5 µg/mL (≈ 1.31 µM) and an IC50 [1] of less than 1.05 nM were found for `C[C@@](CCc1ccc(-c2ccc(Cl)cc2)cc1)(C(=O)NO)S(C)(=O)=O` in this work.
An MIC (Staphylococcus aureus) of 64 µg/mL (≈ 178 µM), an MIC (Pseudomonas aeruginosa) greater than 64 µg/mL and an IC50 [1] greater than 92.5 nM were found for `O=C(NO)C1(CCc2ccc(-c3ccccc3)cc2)CCCS1(=O)=O` (racemic) in this work.
An MIC (Staphylococcus aureus) greater than 64 µg/mL, an MIC (Pseudomonas aeruginosa) greater than 64 µg/mL and an IC50 [1] greater than 100 nM were found for `C[C@@](CCc1ccc(-c2ccccc2C(N)=O)cc1)(C(=O)NO)S(C)(=O)=O` in this work.
An MIC (Staphylococcus aureus) of 32 µg/mL (≈ 83.8 µM), an MIC (Pseudomonas aeruginosa) of 0.5 µg/mL (≈ 1.31 µM) and an IC50 [1] of 3.54 nM were found for `C[C@@](CCc1ccc(-c2cccc(Cl)c2)cc1)(C(=O)NO)S(C)(=O)=O` in this work.
An MIC (Staphylococcus aureus) greater than 64 µg/mL, an MIC (Pseudomonas aeruginosa) of 2 µg/mL (≈ 5.12 µM) and an IC50 [1] of less than 2.47 nM were found for `C[C@@](CCc1ccc(-c2ccc(C(N)=O)cc2)cc1)(C(=O)NO)S(C)(=O)=O` in this work.
An MIC (Staphylococcus aureus) greater than 64 µg/mL, an MIC (Pseudomonas aeruginosa) of 8 µg/mL (≈ 17.8 µM) and an IC50 [1] of 21.2 nM were found for `C[C@@](CCc1ccc(-c2ccc(OCCCC(=O)O)cc2)cc1)(C(=O)NO)S(C)(=O)=O` in this work.
An MIC (Staphylococcus aureus) greater than 64 µg/mL, an MIC (Pseudomonas aeruginosa) of 64 µg/mL (≈ 163 µM) and an IC50 [1] of 73.6 nM were found for `C[C@@](CCc1ccc(-c2ccc(C(=O)O)cc2)cc1)(C(=O)NO)S(C)(=O)=O` in this work.
An MIC (Staphylococcus aureus) of 32 µg/mL (≈ 78.1 µM), an MIC (Pseudomonas aeruginosa) of 64 µg/mL (≈ 156 µM) and an IC50 [1] greater than 67.9 nM were found for `CC(CCc1ccc(-c2ccccc2)cc1)(C(=O)NO)S(=O)(=O)c1ccccc1` (racemic) in this work.
An MIC (Staphylococcus aureus) of 64 µg/mL (≈ 169 µM), an MIC (Pseudomonas aeruginosa) of 4 µg/mL (≈ 10.5 µM) and an IC50 [1] of 30.4 nM were found for `C[C@@](CCc1ccc(Sc2ccccc2)cc1)(C(=O)NO)S(C)(=O)=O` in this work.
An MIC (Staphylococcus aureus) greater than 64 µg/mL, an MIC (Pseudomonas aeruginosa) of 2 µg/mL (≈ 5.3 µM) and an IC50 [1] of 5.16 nM were found for `CC(CCc1ccc(OCc2ccccc2)cc1)(C(=O)NO)S(C)(=O)=O` (racemic) in this work.
An MIC (Staphylococcus aureus) of 64 µg/mL (≈ 175 µM), an MIC (Pseudomonas aeruginosa) of 2 µg/mL (≈ 5.47 µM) and an IC50 [1] of 9.04 nM were found for `CC(CSc1ccc(-c2ccccc2)cc1)(C(=O)NO)S(C)(=O)=O` (racemic) in this work.
An MIC (Staphylococcus aureus) greater than 64 µg/mL, an MIC (Pseudomonas aeruginosa) of 4 µg/mL (≈ 10.1 µM) and an IC50 [1] of 11.9 nM were found for `CC(CS(=O)(=O)c1ccc(-c2ccccc2)cc1)(C(=O)NO)S(C)(=O)=O` (racemic) in this work.
An MIC (Staphylococcus aureus) of 32 µg/mL (≈ 82.2 µM), an MIC (Pseudomonas aeruginosa) of 8 µg/mL (≈ 20.5 µM) and an IC50 [1] of 6.78 nM were found for `CC(C)c1cccc(-c2ccc(CC[C@](C)(C(=O)NO)S(C)(=O)=O)cc2)c1` in this work.
An MIC (Staphylococcus aureus) greater than 64 µg/mL, an MIC (Pseudomonas aeruginosa) of 4 µg/mL (≈ 11.4 µM) and an IC50 [1] of 31.4 nM were found for `CC(COc1ccc(-c2ccccc2)cc1)(C(=O)NO)S(C)(=O)=O` (racemic) in this work.
An MIC (Staphylococcus aureus) of 64 µg/mL (≈ 155 µM), an MIC (Pseudomonas aeruginosa) of 32 µg/mL (≈ 77.4 µM) and an IC50 [1] of 22.1 nM were found for `C[C@@](CCc1ccc(-c2cccc(-n3cccn3)c2)cc1)(C(=O)NO)S(C)(=O)=O` in this work.
An MIC (Staphylococcus aureus) greater than 64 µg/mL, an MIC (Pseudomonas aeruginosa) of 2 µg/mL (≈ 4.76 µM) and an IC50 [1] of 12.7 nM were found for `CC(CCc1ccc(-c2ccc(OCCCN)cc2)cc1)(C(=O)NO)S(C)(=O)=O` (racemic) in this work.
An MIC (Staphylococcus aureus) greater than 64 µg/mL, an MIC (Pseudomonas aeruginosa) of 32 µg/mL (≈ 82 µM) and an IC50 [1] of 27.8 nM were found for `C[C@@](CCc1ccc(-c2cccc(C(N)=O)c2)cc1)(C(=O)NO)S(C)(=O)=O` in this work.
An MIC (Staphylococcus aureus) of 32 µg/mL (≈ 87.6 µM), an MIC (Pseudomonas aeruginosa) of 0.125 µg/mL (≈ 0.342 µM) and an IC50 [1] of 1.36 nM were found for `C[C@@](CCc1ccc(-c2ccccc2F)cc1)(C(=O)NO)S(C)(=O)=O` in this work.
An MIC (Staphylococcus aureus) greater than 64 µg/mL, an MIC (Pseudomonas aeruginosa) of 16 µg/mL (≈ 53.1 µM) and an IC50 [1] greater than 100 nM were found for `COc1ccc(CCC(C)(C(=O)NO)S(C)(=O)=O)cc1` (racemic) in this work.
An MIC (Staphylococcus aureus) greater than 64 µg/mL, an MIC (Pseudomonas aeruginosa) of 1 µg/mL (≈ 2.65 µM) and an IC50 [1] of 7.04 nM were found for `COc1ccccc1-c1ccc(CC[C@](C)(C(=O)NO)S(C)(=O)=O)cc1` in this work.
An MIC (Staphylococcus aureus) greater than 64 µg/mL and an MIC (Pseudomonas aeruginosa) greater than 64 µg/mL were found for `C[C@](CCc1ccc(-c2ccccc2)cc1)(C(=O)NO)S(C)(=O)=O` in this work.
